We go through 34 compounds from patent US20100190788A1, “Amide derivatives as kinase inhitors” (priority 2005, published 2010).

Counter-ions that a name gives are not always drawn.

The target of one assay is T1, human ROCKα/ROCKII mix (Homo sapiens, UniProt O75116).
T1 construct: purchased Upstate Biotechnology 14-451
T1 sequence (O75116 whole entry): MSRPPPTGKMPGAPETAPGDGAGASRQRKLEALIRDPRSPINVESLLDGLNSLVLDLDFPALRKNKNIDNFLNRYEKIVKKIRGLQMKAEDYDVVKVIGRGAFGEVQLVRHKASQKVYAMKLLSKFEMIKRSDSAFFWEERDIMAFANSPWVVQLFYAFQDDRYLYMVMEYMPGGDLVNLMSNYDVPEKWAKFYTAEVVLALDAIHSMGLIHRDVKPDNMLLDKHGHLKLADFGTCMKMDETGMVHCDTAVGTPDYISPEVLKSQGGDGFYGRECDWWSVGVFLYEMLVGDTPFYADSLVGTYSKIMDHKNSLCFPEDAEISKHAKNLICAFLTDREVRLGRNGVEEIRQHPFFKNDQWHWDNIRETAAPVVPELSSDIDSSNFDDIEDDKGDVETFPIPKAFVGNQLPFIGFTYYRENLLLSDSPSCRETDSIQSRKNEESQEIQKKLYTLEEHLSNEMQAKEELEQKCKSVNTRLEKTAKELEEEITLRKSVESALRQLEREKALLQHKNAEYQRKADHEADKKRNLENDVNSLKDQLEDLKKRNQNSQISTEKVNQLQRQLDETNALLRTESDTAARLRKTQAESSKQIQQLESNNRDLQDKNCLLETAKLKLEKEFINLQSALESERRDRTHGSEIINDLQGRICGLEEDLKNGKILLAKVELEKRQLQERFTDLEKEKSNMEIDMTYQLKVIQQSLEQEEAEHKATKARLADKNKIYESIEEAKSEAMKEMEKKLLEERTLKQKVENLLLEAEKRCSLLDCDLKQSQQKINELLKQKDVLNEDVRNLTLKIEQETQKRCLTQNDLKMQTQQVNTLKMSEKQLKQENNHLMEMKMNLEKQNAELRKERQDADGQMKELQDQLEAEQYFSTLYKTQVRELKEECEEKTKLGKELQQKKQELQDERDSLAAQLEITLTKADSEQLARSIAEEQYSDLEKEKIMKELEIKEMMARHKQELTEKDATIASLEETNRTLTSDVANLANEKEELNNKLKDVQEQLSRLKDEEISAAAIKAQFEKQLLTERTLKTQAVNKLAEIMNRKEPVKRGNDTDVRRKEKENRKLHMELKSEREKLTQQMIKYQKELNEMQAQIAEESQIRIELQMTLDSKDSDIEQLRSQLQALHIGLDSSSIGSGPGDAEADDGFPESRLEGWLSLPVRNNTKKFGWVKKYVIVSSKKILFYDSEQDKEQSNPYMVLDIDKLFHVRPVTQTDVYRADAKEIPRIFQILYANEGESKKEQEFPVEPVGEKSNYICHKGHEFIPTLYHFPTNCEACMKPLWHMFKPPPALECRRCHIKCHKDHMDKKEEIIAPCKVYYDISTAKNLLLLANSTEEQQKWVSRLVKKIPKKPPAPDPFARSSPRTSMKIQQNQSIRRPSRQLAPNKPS
Put plainly: ROCK inhibition, fluorescence polarization (FP) assay with ROCK IMAP Kit. The note with it: Table 1, compounds of Formula IV20. The format is biochemical. The procedure:
The compounds were tested for inhibition of human ROCKα/ROCKII mix.
The inhibition assays were performed with a fluorescence polarization (FP) assay using the commercially available ROCK IMAP Kit from Molecular Devices (Product ID. No. R8093), essentially in accordance with the protocol supplied by the manufacturer. […] The enzyme mix ROCKα/ROCKII was obtained from Upstate Biotechnology (Product ID No 14-451).
In summary, all compounds were screened in the wells of a 384 well plate for enzymatic inhibition with concentrations varying from 100 μM to 0.3 nM using a stepwise 3 (or 2)-fold dilution.
To perform the assay, 1 μl of a solution of the compound to be tested in DMSO (at each concentration) was added to 2 μl of a solution of the enzyme in 10 mM Tris-HCl, 10 mM MgCl2, 0.1% BSA, 0.05% NaN3, pH 7.2. The final concentration of the enzyme was 2.6 nM.
After incubating for 30 minutes at RT, 2 μl of a mixture of ATP and the protein substrate in 10 mM Tris-HCl, 10 mM MgCl2, 0.1% BSA, 0.05% NaN3, pH 7.2 was added. The final concentration of the ATP was 10 μM and final concentration of protein substrate was 0.2 μM.
After incubating for 60 minutes at RT, 12 μl of the IMAP Binding Solution (mix of the IMAP Binding Buffer A (1×) and the IMAP Binding Reagent (from the ROCK IMAP kit)) was added.
The mixture thus obtained (total volume: 17 μl) was incubated for 60 minutes at RT, upon which the fluorescence polarization was measured using an automated plate reader (Perkin Elmer, Model Envision 2100-0010 HTS) with FP filters: excitation filter FITC FP 480 and emission filters FITC FP P-pol 535 and FITC FP S-pol 535 (Perkin-Elmer). The results were fitted to a curve using the XL-Fit algorithm and IC50 values were calculated for each fitted curve, again using the XL-Fit algorithm.
A general note: Fluorescence polarisation rises when a labelled molecule tumbles more slowly, as on binding a larger partner.
For orientation: IC50 means the concentration that inhibits the measured activity by half. A higher IC50 goes with lower potency. Compound `CONC(=O)C(N)c1ccc(C(=O)Nc2ccncc2)cc1` (stereo not shown) [Compound 41, 4-(amino-methoxycarbamoyl-methyl)-N-pyridin-4-yl-benzamide] had an IC50 of 0.5 to 5 µM.

In the case of `NC(C(=O)NCCc1cccs1)c1ccc(C(=O)Nc2ccncc2)cc1` (stereo not shown) [Compound 17, 4-[amino-(2-thiophen-2-yl-ethylcarbamoyl)-methyl]-N-pyridin-4-yl-benzamide], the IC50 was less than 0.5 µM.

`NC(C(=O)N1CCC(Cc2ccccc2)CC1)c1ccc(C(=O)Nc2ccncc2)cc1` (stereo not drawn) [Compound 31, 4-[1-amino-2-(4-benzyl-piperidin-l-yl)-2-oxo-ethyl]-N-pyridin-4-yl-benzamide] yielded an IC50 of 0.5 to 5 µM.

For the compound `NC(C(=O)N1CCOCC1)c1ccc(C(=O)Nc2ccncc2)cc1` (stereo not shown) [Compound 34, 4-(1-amino-2-mopholin-4-yl-2-oxo-ethyl)-N-pyridin-4-yl-benzamide], the IC50 is less than 0.5 µM.

On to `NC(C(=O)N1CCCC(CO)C1)c1ccc(C(=O)Nc2ccncc2)cc1` (stereo not shown) [Compound 36, 4-[1-amino-2-(3-hydroxymethyl-piperidin-1-yl)-2-oxo-ethyl]-N-pyridin-4-yl-benzamide], for which the IC50 is 0.5 to 5 µM.

Compound `COc1ccc(NC(=O)C(N)c2ccc(C(=O)Nc3ccncc3)cc2)cc1` (stereo not shown) [Compound 21] yielded an IC50 of less than 0.5 µM.

For the compound `NC(C(=O)NC1CCCCC1)c1ccc(C(=O)Nc2ccncc2)cc1` (stereo not shown) [Compound 32, 4-(amino-cyclohexylcarbamoyl-methyl)-N-pyridin-4-yl-benzamide], the IC50 lay in the range of 0.5 to 5 µM.

For the compound `CC1CC(C)CN(C(=O)C(N)c2ccc(C(=O)Nc3ccncc3)cc2)C1` (stereo not shown) [Compound 27, 4-[1-amino-2-(3,5-dimethyl-piperidin-1-yl)-2-oxo-ethyl]-N-pyridin-4-yl-benzamide], the IC50 was less than 0.5 µM.

The compound `NC(C(=O)Nc1ccccc1)c1ccc(C(=O)Nc2ccncc2)cc1` (stereo not shown) [Compound 20, 4-(amino-phenylcarbamoyl-methyl)-N-pyridin-4-yl-benzamide] yielded an IC50 of 0.5 to 5 µM.

Consider `NC(C(=O)N1CCC(c2nc3ccccc3o2)CC1)c1ccc(C(=O)Nc2ccncc2)cc1` (stereo not shown) [Compound 30, 4-[1-amino-2-(4-benzooxazol-2-yl-piperidin-1-yl)-2-oxo-ethyl]-N-pyridin-4-yl-benzamide], for which the IC50 is less than 0.5 µM.

`COc1ccccc1CNC(=O)C(N)c1ccc(C(=O)Nc2ccncc2)cc1` (stereo not shown) [Compound 9, 4-(amino-(2-methoxy-benzylcarbamoyl)-methyl]-N-pyridin-4-yl-benzamide] registered an IC50 of less than 0.5 µM.

The assay is the same for the next values; noted with them: Table 2, compounds of Formula V20.
As for `NC(CNS(=O)(=O)c1ccc(F)cc1)c1ccc(C(=O)Nc2ccncc2)cc1` (stereo not shown) [Compound 65, 4-[1-amino-2-(4-fluoro-benzenesulfonylamino)-ethyl]-N-pyridin-4-yl-benzamide], the IC50 is less than 0.5 µM.

The compound `NC(CNS(=O)(=O)c1cccs1)c1ccc(C(=O)Nc2ccncc2)cc1` (stereo not shown) [Compound 78, 4-[1-amino-2-(thiophene-2-sulfonylamino)-ethyl]-N-pyridin-4-yl-benzamide] had an IC50 of less than 0.5 µM.

`CS(=O)(=O)NCC(N)c1ccc(C(=O)Nc2ccncc2)cc1` (stereo not shown) [Compound 55, 4-(1-amino-2-methanesulfonylamino-ethyl)-N-pyridin-4-yl-benzamide] gave an IC50 of less than 0.5 µM.

The compound `Cc1ccccc1S(=O)(=O)NCC(N)c1ccc(C(=O)Nc2ccncc2)cc1` (stereo not shown) [Compound 64, 4-[1-amino-2-(2-methyl-benzenesulfonylamino)-ethyl]-N-pyridin-4-yl-benzamide] gave an IC50 of less than 0.5 µM.

For the compound `COc1ccc(S(=O)(=O)NCC(N)c2ccc(C(=O)Nc3ccncc3)cc2)cc1` (stereo not shown) [Compound 70, 4-[1-amino-2-(4-methoxy-benzenesulfonylamino)-ethyl]-N-pyridin-4-yl-benzamide], the IC50 is less than 0.5 µM.

Compound `COc1ccc(S(=O)(=O)NCC(N)c2ccc(C(=O)Nc3ccncc3)cc2)cc1OC` (stereo not shown) [Compound 71, 4-[1-amino-2-(3,4-dimethoxy-benzenesulfonylamino)-ethyl]-N-pyridin-4-yl-benzamide] displayed an IC50 of less than 0.5 µM.

Compound `NC(CNS(=O)(=O)c1ccccc1Cl)c1ccc(C(=O)Nc2ccncc2)cc1` (stereo not shown) [Compound 69, 4-[1-amino-2-(2-chloro-benzenesulfonylamino)-ethyl]-N-pyridin-4-yl-benzamide] came in with an IC50 of less than 0.5 µM.

For the compound `NC(CNS(=O)(=O)c1cccc2ccccc12)c1ccc(C(=O)Nc2ccncc2)cc1` (stereo not shown) [Compound 77, 4-[1-amino-2-(naphthalene-1-sulfonylamino)-ethyl]-N-pyridin-4-yl-benzamide], the IC50 was less than 0.5 µM.

`CCCCCCCCS(=O)(=O)NCC(N)c1ccc(C(=O)Nc2ccncc2)cc1` (stereo not shown) [Compound 59, 4-[1-amino-2-(octane-1-sulfonylamino)-ethyl]-N-pyridin-4-yl-benzamide] came in with a half-inhibitory concentration (IC50) of 0.5 to 5 µM.

The same assay, now with this note: Table 3, compounds of Formula III20.
On to `NC(CC(=O)N1CCc2ccccc2C1)c1ccc(C(=O)Nc2ccncc2)cc1` (stereo not shown) [Compound 131, 4-[1-amino-3-(3,4-dihydro-1H-isoquinolin-2-yl)-3-oxo-propyl]-N-pyridin-4-yl-benzamide], for which the IC50 was less than 0.5 µM.

`NC(CC(=O)N1CCCC1c1cc(F)ccc1F)c1ccc(C(=O)Nc2ccncc2)cc1` (stereo not shown) [Compound 88, 4-{1-amino-3-[2-(2,5-difluoro-phenyl)-pyrrolidin-1-yl]-3-oxo-propyl}-N-pyridin-4-yl-benzamide] returned an IC50 of less than 0.5 µM.

Turning to `NC(CC(=O)N1CCC(Cc2ccccc2)CC1)c1ccc(C(=O)Nc2ccncc2)cc1` (stereo not shown) [Compound 119, 4-[1-amino-3-(4-benzyl-piperidin-1-yl)-3-oxo-propyl]-N-pyridin-4-yl-benzamide], the IC50 is less than 0.5 µM.

In turn, `NC(CC(=O)N1CCCC1c1cccc(F)c1)c1ccc(C(=O)Nc2ccncc2)cc1` (stereo not shown) [Compound 87, 4-{1-amino-3-[2-(3-fluoro-phenyl)-pyrrolidin-1-yl]-3-oxo-propyl}-N-pyridin-4-yl-benzamide] registered an IC50 of less than 0.5 µM.

In the case of `NC(CC(=O)N1CCN(CCO)CC1)c1ccc(C(=O)Nc2ccncc2)cc1` (stereo not shown) [Compound 115, 4-{1-amino-3-[4-(2-hydroxy-ethyl)-piperazin-1-yl]-3-oxo-propyl}-N-pyridin-4-yl-benzamide], the IC50 was less than 0.5 µM.

As for `NC(CC(=O)N1CCCCC1c1cc(Cl)ccc1Cl)c1ccc(C(=O)Nc2ccncc2)cc1` (stereo not shown) [Compound 95, 4-{1-amino-3-[2-(2,5-dichloro-phenyl)-piperidin-1-yl]-3-oxo-propyl}-N-pyridin-4-yl-benzamide], the IC50 is less than 0.5 µM.

In turn, `NC(CC(=O)N1CCN(C(=O)c2ccco2)CC1)c1ccc(C(=O)Nc2ccncc2)cc1` (stereo not shown) [Compound 124, 4-{1-amino-3-[4-(furan-2-carbonyl)-piperazin-1-yl]-3-oxo-propyl}-N-pyridin-4-yl-benzamide] gave an IC50 of less than 0.5 µM.

Compound `NC(CC(=O)N1CCOCC1c1ccc(F)cc1)c1ccc(C(=O)Nc2ccncc2)cc1` (stereo not shown) [Compound 101, 4-{1-amino-3-[3-(4-fluoro-phenyl)-morpholin-4-yl]-3-oxo-propyl}-N-pyridin-4-yl-benzamide] had an IC50 of less than 0.5 µM.

In turn, `NC(CC(=O)N1CCc2c([nH]c3ccccc23)C1)c1ccc(C(=O)Nc2ccncc2)cc1` (stereo not drawn) [Compound 128, 4-[1-amino-3-oxo-(1,3,4,9-tetrahydro-β-carbolin-2-yl)-propyl]-N-pyridin-4-yl-benzamide] came in with a 50% inhibitory concentration (IC50) of less than 0.5 µM.

`COc1ccc(C2c3[nH]c4ccccc4c3CCN2C(=O)CC(N)c2ccc(C(=O)Nc3ccncc3)cc2)cc1Br` (stereo not drawn) [Compound 130, 4-{1-amino-3-[1-(3-bromo-4-methoxy-phenyl)-1,3,4,9-tetrahydro-β-carbolin-2-yl]-3-oxo-propyl}-N-pyridin-4-yl-benzamide] registered an IC50 of 0.5 to 5 µM.

`NC(CC(=O)N1CCc2ccc(F)cc2C1)c1ccc(C(=O)Nc2ccncc2)cc1` (stereo not shown) [Compound 104, 4-[1-amino-3-(7-fluoro-3,4-dihydro-1H-isoquinolin-2-yl)-3-oxo-propyl]-N-pyridin-4-yl-benzamide]: the IC50 is less than 0.5 µM.

The same assay, now with this note: Table 4, compounds 132 to 156.
For the compound `CN(CC(N)c1ccc(C(=O)Nc2ccncc2)cc1)S(=O)(=O)c1ccc(Cl)cc1` (stereo not shown) [Compound 145, 4-{1-Amino-2-[(4-chloro-benzenesulfonyl)-methyl-amino]-ethyl}-N-pyridin-4-yl-benzamide dihydrochloric acid salt], the IC50 was in the range of 0.5 to 5 µM.

Take `COc1ccc(S(=O)(=O)N2CCCC2C(N)c2ccc(C(=O)Nc3ccncc3)cc2)cc1` (stereo not shown) [Compound 132, 4-{Amino-[1-(4-methoxy-benzenesulfonyl)-pyrrolidin-2-yl]-methyl}-N-pyridin-4-yl-benzamide dihydrochloric acid salt]: the 50% inhibitory concentration (IC50) was 0.5 to 5 µM.

`CN(CC(N)c1ccc(C(=O)Nc2ccncc2)cc1)S(=O)(=O)c1ccccc1F` (stereo not shown) [Compound 142, 4-{1-Amino-2-[(2-fluoro-benzenesulfonyl)-methyl-amino]-ethyl}-N-pyridin-4-yl-benzamide dihydrochloric acid salt] yielded an IC50 of 0.5 to 5 µM.
